Reference: ChEMBL document CHEMBL1128652, “Synthesis of the macrolide antibiotic, oxolide” (Bioorg Med Chem Lett, 1995)
Active and inactive are the calls of the source. The calls are words filed in the database; no cut-off is given here.

Tested on: Haemophilus influenzae
Assay: Antibacterial activity against gram-negative bacteria, Haemophilus influenzae; A - found to be active
Format: functional, organism-based

In the case of CC[C@H]1OC(=O)[C@H](C)[C@@H](O[C@H]2C[C@@](C)(OC)[C@@H](O)[C@H](C)O2)[C@H](C)[C@@H](O[C@@H]2O[C@H](C)C[C@H](N(C)C)[C@H]2O)[C@@](C)(O)C[C@@H](C)[C@@H]2O[C@]1(C)[C@@H](N)[C@H]2C, the Activity was “Active”.
